Assay results as given in patent publication US20250230193A1, “CYCLIC COMPOUND HAVING SELECTIVE KRAS INHIBITORY EFFECT ON HRAS AND NRAS” (CHUGAI SEIYAKU KABUSHIKI KAISHA, priority 2022, published 2025).
*1 amine or outer side, *2 acyl side, *3 side chain or, on linkers, in order; H or OH if unused. Where a SMILES comes first, the peptide text is derived from it. Bridges are numbered along the chain shown (N, C = ends). [ ]: non-standard residue; d: D form. The star is where a group is joined. hPhe(3-Cl-4-CF3) = N[C@@H](CCc1ccc(C(F)(F)F)c(Cl)c1)C(=O)O; NPrPhe(4-CF3) = CCCN[C@@H](Cc1ccc(C(F)(F)F)cc1)C(=O)O; X10 = CCCN([C@@H](Cc1ccc(F)cc1)C(=O)[*:2])[*:1]; NMeGly(cPent) = CN[C@H](C(=O)O)C1CCCC1; NEtLeu = CCN[C@@H](CC(C)C)C(=O)O; NMeD = CN[C@@H](CC(=O)O)C(=O)O; NMeL = CN[C@@H](CC(C)C)C(=O)O; Morpholide = C1CN(*)CCO1; NMeA = CN[C@@H](C)C(=O)O; Ac5c = NC1(C(=O)O)CCCC1; Aze = O=C(O)[C@@H]1CCN1; Sar = CNCC(=O)O

How the values were obtained:
[1] = molecular target: GDP-bound NRAS wild-type protein (Homo sapiens, UniProt P01111); experiment: Binding to NRAS by surface plasmon resonance (SPR), Single Cycle Kinetics; conditions: SPR
GDP-bound NRAS wild-type protein, sequence (P01111 whole entry): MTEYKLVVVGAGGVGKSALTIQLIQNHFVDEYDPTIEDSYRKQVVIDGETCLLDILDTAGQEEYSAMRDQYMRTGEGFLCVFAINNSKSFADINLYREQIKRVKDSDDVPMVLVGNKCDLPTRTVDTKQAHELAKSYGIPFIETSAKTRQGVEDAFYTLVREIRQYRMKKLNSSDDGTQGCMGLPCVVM

[2] = molecular target: GDP-bound HRAS wild-type protein (Homo sapiens, UniProt P01112); experiment: Binding to HRAS by surface plasmon resonance (SPR), Single Cycle Kinetics; conditions: SPR
GDP-bound HRAS wild-type protein, sequence (P01112 whole entry): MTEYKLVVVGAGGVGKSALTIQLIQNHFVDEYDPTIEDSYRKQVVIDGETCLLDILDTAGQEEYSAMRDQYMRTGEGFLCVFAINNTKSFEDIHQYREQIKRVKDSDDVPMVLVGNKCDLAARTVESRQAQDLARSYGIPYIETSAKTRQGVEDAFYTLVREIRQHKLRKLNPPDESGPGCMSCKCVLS

[3] = KD ratio, GDP-bound NRAS wild-type vs GDP-bound KRAS wild-type
[4] = KD ratio, GDP-bound HRAS wild-type vs GDP-bound KRAS wild-type

For `CC[C@H](C)[C@@H]1NC(=O)[C@@H]2CCCc3ccc(cc3)C[C@@H](C(=O)N(C)CC(=O)N[C@@H](CCc3ccc(C(F)(F)F)c(OC)c3)C(=O)N3C[C@H](OC(C)C)C[C@H]3C(=O)NC3(CC(C)(C)C3)C(=O)N(C)[C@@H](C3CCCC3)C(=O)N(C)[C@H](C(=O)N(C)CC)CC(=O)N2C)N2CC/C=C\C[C@@H](C2=O)N(C)C(=O)CN(C)C1=O` [PP3084], the “NRAS/KRAS (ratio of KD value with respect to GDP-bound NRAS wild-type protein to KD value with respect to KRAS)” value ([1]; KD ratio NRAS/KRAS, GDP-bound wild-type proteins) was “A (a compound having 10 or more and less than 20 is denoted as A)” and the “HRAS/KRAS (ratio of KD value with respect to GDP-bound HRAS wild-type protein to KD value with respect to KRAS)” value ([2]; KD ratio HRAS/KRAS, GDP-bound wild-type proteins) was “B (a compound having 3 or more and less than 10 is denoted as B)”.
`CC[C@H](C)[C@@H]1NC(=O)[C@H](CC(C)C)NC(=O)C[C@@H](C(=O)N2CCOCC2)N(C)C(=O)[C@H](C2CCCC2)N(C)C(=O)C2(CCCC2)NC(=O)[C@@H]2CCCN2C(=O)[C@H](CCc2cc(F)c(C(F)(F)F)c(F)c2)NC(=O)CN(C)C(=O)[C@H](Cc2ccc(C(F)(F)F)cc2)N2CCCC[C@@H](C2=O)N(C)C(=O)CN(C)C1=O` [PP0590] was tested, and the “NRAS/KRAS (ratio of KD value with respect to GDP-bound NRAS wild-type protein to KD value with respect to KRAS)” value ([1]; KD ratio NRAS/KRAS) was “C (A compound having a KD ratio of 0.1 or more and less than 3 is denoted as C)” and the “HRAS/KRAS (ratio of KD value with respect to GDP-bound HRAS wild-type protein to KD value with respect to KRAS)” value ([2]; KD ratio HRAS/KRAS) was “B (a compound having 3 or more and less than 10 is denoted as B)”.
With `CCO[C@@H]1C[C@H]2C(=O)NC3(CCC3)C(=O)N(C)[C@@H](C3CCCC3)C(=O)N(C)[C@H](C(=O)N3CCOCC3)CC(=O)N(C)[C@@H](CC3CC3)C(=O)N[C@@H]([C@@H](C)CC)C(=O)N(C)CC(=O)N(C)[C@H]3CCCCCN(C3=O)[C@@H](Cc3ccc(C(F)(F)F)cc3)C(=O)N(C)CC(=O)N[C@@H](CCc3cc(F)c(C(F)(F)F)c(F)c3)C(=O)N2C1` [PP0682] the “NRAS/KRAS (ratio of KD value with respect to GDP-bound NRAS wild-type protein to KD value with respect to KRAS)” value ([1]; KD ratio NRAS/KRAS) was “B (a compound having 3 or more and less than 10 is denoted as B)” and the “HRAS/KRAS (ratio of KD value with respect to GDP-bound HRAS wild-type protein to KD value with respect to KRAS)” value ([2]; KD ratio HRAS/KRAS) was “B (a compound having 3 or more and less than 10 is denoted as B)”.
For `CCCN1C(=O)[C@@H]2CCN2C(=O)[C@H](C)N(C)C(=O)[C@H]([C@@H](C)CC)NC(=O)[C@H](CC(C)C)N(C)C(=O)C[C@@H](C(=O)N2CCOCC2)N(C)C(=O)[C@H](C2CCCC2)N(C)C(=O)C2(CCCC2)NC(=O)[C@@H]2CCCN2C(=O)[C@H](CCc2ccc(C(F)(F)F)c(Cl)c2)NC(=O)CN(C)C(=O)[C@@H]1Cc1ccc(F)cc1` [PP0219] ([NMeL]I[NMeA][Aze][X10][Sar][hPhe(3-Cl-4-CF3)]P[Ac5c][NMeGly(cPent)][NMeD]-Morpholide; lactam N-11), the “NRAS/KRAS (ratio of KD for GDP-bound NRAS wild-type to KD for KRAS)” value ([1]; KD ratio NRAS/KRAS) was “C (A compound having a KD ratio of 0.1 or more and less than 3 is denoted as C)” and the “HRAS/KRAS (ratio of KD for GDP-bound HRAS wild-type to KD for KRAS)” value ([2]; KD ratio HRAS/KRAS) was “B (a compound having 3 or more and less than 10 is denoted as B)”.
In the case of `CCO[C@@H]1C[C@H]2C(=O)NC3(CCC3)C(=O)N(C)[C@@H](C3CCCC3)C(=O)N(C)[C@H](C(=O)N3CCOCC3)CC(=O)N(CC)[C@@H](CC(C)C)C(=O)N[C@@H]([C@@H](C)CC)C(=O)N(C)CC(=O)N(C)[C@H]3C[C@@H](C)CCN(C3=O)[C@@H](Cc3ccc(C(F)(F)F)cc3)C(=O)N(C)CC(=O)N[C@@H](CCc3cc(F)c(C(F)(F)F)c(F)c3)C(=O)N2C1` [PP1030], the “NRAS/KRAS (ratio of KD value with respect to NRAS to KD value with respect to KRAS)” value [1, 3] is reported as “B (a compound having 3 or more and less than 10 is denoted as B)” and the “HRAS/KRAS (ratio of KD value with respect to HRAS to KD value with respect to KRAS)” value [2, 4] is reported as “B (a compound having 3 or more and less than 10 is denoted as B)”.
In the case of `CCO[C@@H]1C[C@H]2C(=O)NC3(CCC3)C(=O)N(C)[C@@H](C3CCCC3)C(=O)N(C)[C@H](C(=O)N(C)C)CC(=O)N(C)C[C@@H](C)C(=O)N[C@@H]([C@@H](C)CC)C(=O)N(C)CC(=O)N(C)[C@H]3CCCCN(C3=O)[C@@H](Cc3ccc(C(F)(F)F)cc3)C(=O)N(C)CC(=O)N[C@@H](CCc3cc(F)c(C(F)(F)F)c(F)c3)C(=O)N2C1` [PP0706], the “NRAS/KRAS (ratio of KD value with respect to GDP-bound NRAS wild-type protein to KD value with respect to KRAS)” value ([1]; KD ratio NRAS/KRAS) is reported as “B (a compound having 3 or more and less than 10 is denoted as B)” and the “HRAS/KRAS (ratio of KD value with respect to GDP-bound HRAS wild-type protein to KD value with respect to KRAS)” value ([2]; KD ratio HRAS/KRAS) is reported as “B (a compound having 3 or more and less than 10 is denoted as B)”.
With `CCCN1C(=O)CN(C)C(=O)CNC(=O)[C@H]([C@@H](C)CC)NC(=O)[C@H](CC(C)C)N(CC)C(=O)C[C@@H](C(=O)N2CCOCC2)N(C)C(=O)[C@H](C2CCCC2)N(C)C(=O)C2(CCCC2)NC(=O)[C@@H]2CCCN2C(=O)[C@H](CCc2ccc(C(F)(F)F)c(Cl)c2)NC(=O)CN(C)C(=O)[C@@H]1Cc1ccc(C(F)(F)F)cc1` [PP1967] ([NEtLeu]IG[Sar][NPrPhe(4-CF3)][Sar][hPhe(3-Cl-4-CF3)]P[Ac5c][NMeGly(cPent)][NMeD]-Morpholide; lactam N-11) the “NRAS/KRAS (ratio of KD value for NRAS to KD value for KRAS)” value [1, 3] was “B (a compound having 3 or more and less than 10 is denoted as B)” and the “HRAS/KRAS (ratio of KD value for HRAS to KD value for KRAS)” value [2, 4] was “B (a compound having 3 or more and less than 10 is denoted as B)”.
